Test results taken from US4968826A, “Platinum complexes and antitumor agents containing them as an active ingredient” (Shionogi & Co., Ltd., priority 1989, dated 1990).

Legend:
L1210 = assay: Antitumor effect (ILS) in mice inoculated i.p. with murine leukemia L1210; format: in vivo, murine leukemia cells in BDF1 mice; details: for ILS30 (dose of achieving 30% ILS) / ILS max (dose of achieving the maximum ILS): i.p.; for Number of mice survived 30 days or longer: of 7 mice; for chemotherapy index (CI): from ILS30 and ILSmax, the greater, the more effective
Excerpt: (§1) Antitumor activities against murine leukemia cells (L1210) and cisplatin-resistant murine leukemia cells (L1210/CDDP):
(§2) Murine leukemia L1210 (or L1210/CDDP) ascitic cells (1×10^5 cells) (5×10^5 cells for L1210/CDDP) were intraperitoneally inoculated to BDF1 mice (each group consisting 6~10 mice), and on the next day a predetermined amount of the test compound was intraperitoneally administered. 0.9% physiological saline was used as a solvent for injection.
(§3) From the average survival days (a) in each test group and those (b) of the non-treated control group, the increase of lifespan (ILS) was calculated according to the following formula. [formula]
(§4) As compared with the non-treated control group, the dose of achieving 30% ILS (ILS30) and the dose of achieving the maximum ILS (ILSmax) were obtained, from which the chemotherapy index (CI) was calculated. [formula]

Colon tumor 38 = assay: Antitumor activity against Colon tumor 38 transplanted in mice; format: in vivo, BDF1 mice; details: for ED 50 (dose of 50% growth inhibition in the mean tumor size): i.v. on next day and 8th day after; for chemotherapy index (CI): from ED50 and LD50, the greater, the more effective
Excerpt: Antitumor activity against Colon tumor 38:
A tumor segment of Colon tumor 38 was transplanted beneath the dorsal skin of BDF1 mice (6 to 10 mice in each group), and the test compounds were intravenously administered on the next day and on the 8th day after the next day, respectively. As solvent for injection, 0.9% physiological saline was used.
Test Compounds A, C, D and E were same as those used in Experiment 1.

L1210/CDDP = assay: Antitumor effect (ILS) in mice inoculated i.p. with cisplatin-resistant murine leukemia L1210/CDDP; format: in vivo, murine leukemia cells in BDF1 mice; details: for ILS30 (dose of achieving 30% ILS) / ILSmax (dose of achieving the maximum ILS): i.p.; for Number of mice surviving 30 days or longer: A: of 6 mice; for chemotherapy index (CI): from ILS30 and ILSmax, the greater, the more effective
Excerpt: as §1, §2, §3, §4

[1] = system: murine nucleated bone marrow cells; assay: Hemotoxicity: nucleated bone marrow cell count (NBMC) in femora; format: in vivo, male CDF1 mice; details: 4 days after
Excerpt: (§5) Influence against murine nucleated bone marrow cell count, megakaryocyte count and platelet count in peripheral blood:
(§6) After a single intravenous administration of test compounds to male CDF1 mice (7 weeks old), hemotoxicity was investigated by counting the nucleated bone marrow cell in femora (NBMC), megakaryocyte (MEG) and platelet (PLT) in peripheral blood. Measuring timing was taken when the three indices reached the minimal value, namely 4 days after administration for NBMC, and 7 days after for MEG and PLT.
(§7) Changes in the counts of nucleated bone marrow cells (NBMC), megakaryocytes (MEG) and platelets (PLT) in peripheral blood induced by administration of the test compounds are shown as hemotoxicity, expressed as the ratio of the value of each index in the test group to that of the non-treated conrol group as a percentage.

kidneys = assay: Evaluation of nephrotoxicity in mice; format: in vivo, male CDF1 mice; details: for Creatinine / Urea nitrogen: mouse, in vivo, iv
Protocol: Evaluation of nephrotoxicity in mice:
After a single intravenous administration of Test Compound A to male CDF1 mice (6 weeks old) at a rate of 160 or 320 mg/kg*, the levels of creatinine and urea nitrogen in plasma were measured. The mice were presented for pathological examination of kidneys four days after administration. (*: 320 mg/kg would be a lethal dose if the observation period was further extended.)

[2] = system: platelets in peripheral blood; assay: Hemotoxicity: platelet count (PLT) in peripheral blood; format: in vivo, male CDF1 mice; details: 7 days after
Excerpt: as §5, §6, §7

megakaryocytes = assay: Hemotoxicity: megakaryocyte count (MEG); format: in vivo, male CDF1 mice; details: 7 days after
Excerpt: as §5, §6, §7

[3] = 30.0 mg/kg (1/6 LD90) single i.v.

Molecule | ILS30 (dose of achieving 30% ILS) (L1210) [mg/kg] | ILS max (dose of achieving the maximum ILS) (L1210) [mg/kg] | ED 50 (dose of 50% growth inhibition in the mean tumor size) (Colon tumor 38) | ILS30 (dose of achieving 30% ILS) (L1210/CDDP) | chemotherapy index (CI) (Colon tumor 38) | increase of lifespan (ILS) (L1210; 10 mg/kg i.p.) [%] | increase of lifespan (ILS) (L1210; 20 mg/kg i.p.) [%] | increase of lifespan (ILS) (L1210; 40 mg/kg i.p.) [%] | increase of lifespan (ILS) (L1210; 80 mg/kg i.p.) [%] | increase of lifespan (ILS) (L1210; 160 mg/kg i.p.) [%] | Number of mice survived 30 days or longer (L1210; 160 mg/kg i.p.) | chemotherapy index (CI) (L1210) | increase of lifespan (ILS) (L1210/CDDP; 5 mg/kg i.p.) [%] | increase of lifespan (ILS) (L1210/CDDP; 10 mg/kg i.p.) [%] | increase of lifespan (ILS) (L1210/CDDP; 20 mg/kg i.p.) [%] | increase of lifespan (ILS) (L1210/CDDP; 40 mg/kg i.p.) [%] | Number of mice surviving 30 days or longer (L1210/CDDP; 40 mg/kg i.p., B: of 7 mice) | increase of lifespan (ILS) (L1210/CDDP; 80 mg/kg i.p.) [%] | Number of mice surviving 30 days or longer (L1210/CDDP; 80 mg/kg i.p., B: of 7 mice) | Solubility in water [mg/mL] | also measured
N.N.[Cl][Pt][Cl] [Test Compound D, Cisplatin, reference compound] | 2.7 | 10 | 18.3 mg/kg | ineffective |  |  |  |  |  |  |  |  |  |  |  |  |  |  |  |  | 
(1R,2R-Diaminocyclohexane)[2-hydroxy-2-methylbutyrato(2-)-O^1, O^2 -]platinum (II) [Test Compound C] |  |  | 106.2 mg/kg |  | 4.3 |  |  |  |  |  |  |  |  |  |  |  |  |  |  |  | 
(1R,2R-Diaminocyclohexane)[1-hydroxy-1-cyclopropanecarboxylato(2-)-O^1,O^2 ]platinum (II) [Test Compound B] | 45 | 160 |  | 24 mg/kg |  | 10 | 21 | 22 | 66 | > 83 | 2 | 3.6 | 6 | 14 | 4 | > 93 | 3 | > 179 | 6 | 30 | increase of lifespan (ILS) (L1210/CDDP; 160 mg/kg i.p.): -16%; chemotherapy index (CI) (L1210/CDDP): 3.3; ILSmax (dose of achieving the maximum ILS) (L1210/CDDP): 80 mg/kg
(1R,2R-Diaminocyclohexane)[1-hydroxy-1-cyclopentanecarboxylato(2-)-O^1,O^2 ]platinum (II) [Test Compound A] | 31 | 160 | 164.9 mg/kg | 14.5 mg/kg | 2.7 | 16 | 19 | 37 | > 81 | > 168 | 1 | 5.2 | 1 | 5 | > 50 | > 56 | 2 | > 110 | 4 | > 500 | increase of lifespan (ILS) (L1210; 5 mg/kg i.p.): 10%; Number of mice survived 30 days or longer (L1210; 40 mg/kg i.p.): 1; Number of mice survived 30 days or longer (L1210; 80 mg/kg i.p.): 3; increase of lifespan (ILS) (L1210; 320 mg/kg i.p.): 14%; Hemotoxicity NBMC (ratio to non-treated control) ([1]; 31.0 mg/kg single i.v.): 108 percentage; Hemotoxicity NBMC (ratio to non-treated control) ([1]; 62.0 mg/kg (1/5 LD90) single i.v.): 87 percentage; Number of mice surviving 30 days or longer (L1210/CDDP; 20 mg/kg i.p.): 2; increase of lifespan (ILS) (L1210/CDDP; 160 mg/kg i.p.): 1%; chemotherapy index (CI) (L1210/CDDP): 5.5; ILSmax (dose of achieving the maximum ILS) (L1210/CDDP): 80 mg/kg; Creatinine (kidneys; 160 mg/kg): 0.26; Urea nitrogen (kidneys; 160 mg/kg): 22.6 mg/dL; Creatinine (kidneys; 320 mg/kg): 0.27; Urea nitrogen (kidneys; 320 mg/kg): 23.3 mg/dL; lethal dose (kidneys; single i.v., male CDF1 mice, if the observation period was further extended): 320 mg/kg
N.N.O=C([O-])C1(C(=O)[O-])CCC1.[Pt+2] [Test Compound E, Carboplatin] |  |  | Ineffective | ineffective |  |  |  |  |  |  |  |  |  |  |  |  |  |  |  | 16 | Hemotoxicity PLT (ratio to non-treated control) [2, 3]: 89 percentage; Hemotoxicity PLT (ratio to non-treated control) ([2]; 60.0 mg/kg single i.v.): 65 percentage; Hemotoxicity PLT (ratio to non-treated control) ([2]; 120.0 mg/kg single i.v.): 35 percentage; Hemotoxicity NBMC (ratio to non-treated control) [1, 3]: 78 percentage; Hemotoxicity NBMC (ratio to non-treated control) ([1]; 60.0 mg/kg single i.v.): 75 percentage; Hemotoxicity NBMC (ratio to non-treated control) ([1]; 120.0 mg/kg single i.v.): 28 percentage; Hemotoxicity MEG (ratio to non-treated control) (megakaryocytes; [3]): 60 percentage; Hemotoxicity MEG (ratio to non-treated control) (megakaryocytes; 60.0 mg/kg single i.v.): 45 percentage; Hemotoxicity MEG (ratio to non-treated control) (megakaryocytes; 120.0 mg/kg single i.v.): 8 percentage
